Data reported in patent US12448425B2, “Therapeutic peptides” (Board of Regents, The University of Texas System, priority 2019, dated 2025).

Assays:
Bev-resistant RF24 cells = assay: Cell death in bevacizumab-resistant RF24 cells (SYTOX-green flow cytometry); format: cell-based
Procedure: FIGS. 4A-D: BIDEN-AP-based agents inhibit microtubule formation and sensitizes resistant endothelial cells to anti-VEGF antibody. (FIG. 4A, FIG. 4B) Microtubule formation in RF24 cells treated with EFNB2-Fc (2 nM) or BIDEN-AP (15 μM) compared to untreated controls (CTL). Five images per well were taken at ×100 magnification. […] Representative plots from flow cytometry analysis with SYTOX-green are shown. […] Data are presented as mean±SD (n=6). *p<0.05, **p<0.01.
Given the important role of endothelium in adaptive changes with anti-angiogenic therapy (Bergers et al., 2008), we further tested the effects of BIDEN-AP in overcoming resistance to anti-VEGF therapy in RF24 cells. To do this, we first established a bevacizumab (Bev)-resistant RF24 cell line selected though continuous Bev treatment at low dose ([…]) for 2 weeks. The Bev-resistant RF24 cells were maintained at a Bev concentration of […]. Using flow cytometry with SYTOX-green staining, we quantified the live (SYTOX-negative) vs. dead (SYTOX-positive) populations after treatment with BIDEN-AP or CCPM-BIDEN-AP.

[1] = Particle size by transmission electron microscopy; format: physicochemical
Procedure: CCPM-BIDEN-AP conjugation. CCPM with amine functionalized surface was synthesized according to reported procedures (Koolpe et al., 2005). To introduce a maleimide group to the CCPM, an aliquot of N-(γ-maleimidobutyryloxy)-succinimide ester) (GMBS) in DMF ([…], 0.16 mmol) was added into the CCPM ([…], 2.6 nmol nanoparticles) in 1.2 mL of phosphate-buffered saline solution (PBS, pH 8). The mixture was stirred for 3 h at 37° C. The product was purified using a PD-10 column to remove unreacted GMBS. To introduce a sulfhydryl group to BIDEN-AP, the amino acid cysteine was conjugated to the N-terminal amine of BIDEN-AP. The resulting sulfhydryl-containing Cys-BIDEN-AP was mixed with 2 mL of a solution of CCPM-maleimide (0.16 mmol equivalent maleimide) in PBS with a 2:1 molar ratio of Cys-BIDEN-AP to maleimide groups (CCPM). […] The unreacted Cys-BIDEN-AP was quantified on an Agilent 1100 Series LC/MSD-TOF instrument equipped with a Vydac C18 column. The molar ratio of BIDEN-AP to CCPM was calculated on the basis of Cys-BIDEN-AP consumed (total Cys-BIDEN-AP minus remaining Cys-BIDEN-AP). The size of CCPM-BIDEN-AP was determined by transmission electron microscopy (TEM). […]

A2780cp20-Luc tumors = assay: Orthotopic A2780cp20-Luc ovarian cancer model; format: in vivo, mouse
Source text: Female nude mice were intraperitoneally (i.p.) inoculated with […] tumor cells. […] Tumor growth was monitored by bioluminescence imaging (IVIS). […] CTL, untreated control.
Orthotopic ovarian cancer models. […] For all therapeutic experiments, groups of the mice (n=8-10) were inoculated intraperitoneally with A2780cp20-Luc cells. […] Untreated mice were used as a control.
Immunoblotting, immunoprecipitation, and co-immunoprecipitation. For immunoblotting, lysates from cultured cells were prepared using modified radioimmunoprecipitation assay (RIPA) buffer (50 mM Tris-HCl [pH 7.4], 150 mM NaCl, 1% Triton, 0.5% deoxycholate) plus 25 μg/mL leupeptin, 10 μg/mL aprotinin, 2 mM EDTA, and 1 mM sodium orthovanadate. To prepare lysates of snap-frozen tissue from mice, approximately 30-mm^3 cuts of tissue were disrupted with a tissue homogenizer and subjected to centrifugation at 13,000 rpm for 30 min in modified RIPA buffer. The protein concentrations were determined by using a BCA Protein Assay Reagent kit (Pierce Biotechnology, Rockford, IL). Lysates were loaded and separated by 8% sodium dodecyl sulfate (SDS)-polyacrylamide gel electrophoresis (PAGE). Proteins were transferred to a nitrocellulose membrane by semidry electrophoresis (Bio-Rad Laboratories, Hercules, CA) overnight, blocked with 3% BSA for 1 h, and then incubated at 4° C. with primary antibody overnight. After washing with a mixture of tris-buffered saline and Tween 20 (TBST) solutions, the membranes were incubated with horseradish peroxidase (HRP)-conjugated horse anti-mouse IgG (1:2000, GE Healthcare, Amersham Place, UK) for 2 h. HRP was visualized by an enhanced chemoluminescence detection kit (Pierce). […] Densitometry was performed using ImageJ software. For immunoprecipitation and co-immunoprecipitation, cells were subjected to lysis in non-denaturing NP40 cell lysis buffer (Cell Signaling Technology, Boston, MA). The extracts were incubated with A/G-conjugated antibody at 4° C. for 2 h, and for immunoprecipitation the beads were washed twice with RIPA buffer, once with 0.5 m LiCl in 0.1 m Tris (pH 8.0), and once with PBS. Reactions were boiled in sample buffer, and proteins were then subjected to 10% SDS-PAGE and immunoblotting.
Immunofluorescence analysis of CD31 was performed on 5-μm-thick fresh-frozen tissue samples. After deblocking with acetone, acetone-chloroform (1:1), and acetone for 5 min, non-specific binding was blocked with 4% fish gelatin (Biotium Inc, Hayward, CA) in PBS for 30 min.
Immunohistochemistry (IHC) analysis.

CCPM-BIDEN-AP: nano-conjugate of Cys-BIDEN-AP on core-crosslinked polymeric micelles via maleimide (GMBS) (CTNYLFSPNGPIARAW; D-residues)
sensitization of Bev-resistant cells to Bev treatment (Bev-resistant RF24 cells): re-sensitized these cells to Bev treatment | mean diameter (TEM) [1]: 24±3 nm | bioluminescence signal intensity (A2780cp20-Luc tumors; day 28, 13 mg/kg/injection i.p., 10 doses): significantly reduced the bioluminescence signal intensity | metastatic nodules, comparison of the two agents (A2780cp20-Luc tumors; day 31): reduced metastatic nodules to a greater extent than BIDEN-AP | tumor growth in the peritoneum (tumor weight, number of metastatic nodules) (A2780cp20-Luc tumors; day 31, 13 mg/kg/injection i.p., 10 doses): significantly reduced tumor growth | apoptotic cell death in CD31 endothelial vasculature (TUNEL) (A2780cp20-Luc tumors; excised tumors): induced apoptotic cell death | tumor cell proliferation (Ki67-positive cells) (A2780cp20-Luc tumors; excised tumors): significantly reduced tumor cell proliferation | microvessel density (MVD) (A2780cp20-Luc tumors; excised tumors, CD31): decreased microvessel density | EphB4 and Crk1 phosphorylation in vivo (A2780cp20-Luc tumors; orthotopic A2780cp20 tumors): induce EphB4 and Crk1 phosphorylation
